Assay results reported in patent publication US20180140609A1, “USE OF (4-HYDROXY-2-METHYL-1,1-DIOXIDO-2H-BENZO[E][1,2]THIAZINE-3-YL)(NAPHTHALENE-2-YL) METHANONE IN THE PREVENTION AND/OR TREATMENT OF NON-ALCOHOLIC STEATOHEPATITIS” (PIERRE FABRE MEDICAMENT, priority 2015, published 2018).
Where two headings read alike, the source gives them in different places.

Legend:
[1] = Plasma exposure in cynomolgus monkeys (prednisone challenge studies, LC-MS/MS); type: in vivo; conditions: same dose of 20 mg/kg
Protocol: (§1) Briefly, the study is carried out in naive adult male cynomolgus monkeys fasted overnight. The 11β-HSD type 1 inhibitor or its vehicle (0.5% methylcellulose in water) is administered via nasogastric intubation. Two hours later, a challenge with orally administered prednisone (10 mg/kg) is performed and blood samples are taken regularly for 24 hours. These samples are centrifuged to obtain plasma and immediately frozen at −70° C. until bioanalysis. Plasma levels of prednisone, prednisolone and 11β-HSD type 1 inhibitors are measured by LC-MS/MS analytical methods.
(§2) The study is carried out over a period of 10 weeks. Profiles of plasma concentration as a function of time and areas under the curve are calculated using the trapezoidal method for all parameters.

[2] = test system: hepatic 11β-HSD type 1; assay: Ex vivo activity of hepatic 11β-HSD type 1 after single oral administration in cynomolgus monkeys; conditions: 20 mg/kg single oral, liver 4 hours after administration
Protocol: (§3) Five adult male cynomolgus monkeys (same animals used in studies 1 and 2 of Example 4) are fasted the evening before the experiment. Blood samples are taken right before administration of Compound 1K (dose of 20 mg/kg, n=3) or administration of the vehicle (0.5% methylcellulose in water, n=2) then 4 hours after oral administration. The animals are euthanized, necropsy is performed on the monkeys, samples of plasma and of target tissues are taken and then frozen in liquid nitrogen and stored at −70° C. until ex vivo analyses. To test the ex vivo activity of 11β-HSD type 1, 5-10 mg liver samples were incubated in duplicate for 30 minutes at 37° C. with 17 nM [1,2-^3H] cortisone in 50 mM HEPES (pH 7.4), 100 mM KCl, 5 mM NaCl, 2 mM MgCl2. Plasma levels were measured by the LC-MS/MS analytical method. The liver samples were homogenized by sonication and extracted with acetonitrile (1 ml of distilled water, 4 ml of acetonitrile for 200 mg of tissue). Tissue levels of the compounds were measured by the LC-MS/MS analytical method.

[3] = test system: 11β-HSD type 1; assay: Inhibition of conversion of prednisone to prednisolone after single administration to cynomolgus monkeys; type: in vivo
Protocol: The protocol used is described by Bhat et al. (J. Pharmacol. Exp. Ther. 324, 299-305, 2008).
as §1, §2
The effect of Compound 1 is evaluated at three doses: 1.25, 5 and 20 mg/kg.
The effect of Compound 1K is evaluated at three doses: 20, 40 and 80 mg/kg. The protocol is quite similar to the preceding, except that only 5 blood samples were taken per monkey rather than 7. Compound 1K was also evaluated over a period of 10 weeks.
The 11β-HSD type 1 activity-dependent conversion of prednisone to prednisolone was evaluated. Compound 2K inhibits roughly 50% this activity at a dose of 20 mg/kg (FIG. 2A). FIG. 2 represents the effects of Compound 2K, at the three doses tested, on plasma prednisolone/prednisone ratio calculated with the area under the curve between 30 minutes and 4 hours (panel A) and on plasma exposure during the 6-hour experimental period (panel B); the results obtained with Compound 1K at a dose of 5 mg/kg are compared in the two panels.

[4] = Clinical and behavioral signs in cynomolgus monkeys during the prednisone challenge studies; type: in vivo; conditions: study no. 2, 20, 40 and 80 mg/kg, even at 80 mg/kg
Protocol: as §1, §2

[5] = Plasma and tissue levels after single oral administration in cynomolgus monkeys (LC-MS/MS); type: in vivo; conditions: male, cynomolgus monkey, 20 mg/kg oral
Protocol: as §3
(§4) The protocol is the same as that described in Example 5, except that the tissue samples are from mesenteric, subcutaneous and inguinal adipose tissue.

[6] = test system: 11β-HSD type 1 of adipose tissue; assay: Ex vivo activity of 11β-HSD type 1 of adipose tissue after single oral administration to cynomolgus monkeys; type: in vivo; conditions: 20 mg/kg single oral, 4 hours, mesenteric and subcutaneous adipose tissue
Protocol: as §3, §4

[7] = biological target: T1, human 11β-HSD type 1 (Homo sapiens, UniProt P28845); assay: Plasma bioactivity after single oral administration in C57BL/6N mice, read as inhibition of human 11β-HSD type 1 (SPA); type: in vivo; conditions: for inhibition at 2.5 mg/kg / inhibition at 10 mg/kg: po, mice, table with plasma levels; for inhibition at 2.5 mg/kg: 2.5 mg/kg oral; for inhibition at 10 mg/kg: 10 mg/kg oral
T1 sequence (P28845 whole entry): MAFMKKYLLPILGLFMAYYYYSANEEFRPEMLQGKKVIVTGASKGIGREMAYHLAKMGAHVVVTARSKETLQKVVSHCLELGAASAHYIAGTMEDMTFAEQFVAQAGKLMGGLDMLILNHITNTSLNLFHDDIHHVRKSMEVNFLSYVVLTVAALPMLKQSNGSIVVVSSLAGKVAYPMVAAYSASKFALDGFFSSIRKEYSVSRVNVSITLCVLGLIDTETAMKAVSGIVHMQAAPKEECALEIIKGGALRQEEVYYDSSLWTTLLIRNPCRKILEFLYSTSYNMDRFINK
Protocol: (§5) The evaluation is made in on 4- to 6-week-old non-fasted male C57BL/6N strain mice. The compounds to be tested or the vehicle (0.5% methylcellulose in water, at 10 ml/kg) are administered orally; n=3 mice per treatment.
(§6) Blood samples are collected 1 h and 4 h after administration; the tubes are centrifuged to obtain plasma and frozen at −70° C. until bioanalysis. Plasma bioactivity (2% final volume) is analyzed by using the inhibition of human 11β-HSD type 1 as a detection system (SPA technology) for each compound at each dose tested. Percent inhibition (versus mice treated with carrier) is calculated for each dose.

[8] = biological target: T1, human 11β-HSD type 1; assay: Bioactivity of inguinal white adipose tissue after single oral administration in C57BL/6N mice, read as inhibition of human 11β-HSD type 1 (SPA); type: in vivo; conditions: mouse inguinal white adipose tissue extract
Protocol: Four hours post-administration, the mice are euthanized and inguinal white adipose tissue is taken and frozen at −70° C. until the day of bioanalyses. The white adipose tissue is homogenized in liquid nitrogen and then treated with acetonitrile (1 ml of distilled water for 4 ml of acetonitrile and 200 mg of inguinal white adipose tissue) to extract soluble substances. The acetonitrile fraction is collected, then dried, and the residue is dissolved in 1 ml of DMSO for 300 mg of white adipose tissue.
Compounds tested: the same as those of Example 2.

[9] = Plasma level by LC/MS after single oral administration in C57BL/6N mice; type: in vivo; conditions: parent molecule by LC/MS
Protocol: as §5, §6
Compound 1 is detected in the plasma of the treated mice and inhibits 11β-HSD type 1 as of 0.63 mg/kg. LC/MS analyses of plasma samples from the animals treated with Compound 1K show a much higher plasma level of the parent molecule than that found for Compound 1.

[10] = 1 h, read-out: Plasma 1 h % inh.
[11] = 4 h, read-out: Plasma 4 h % inh.

SMILES: CN1C(C(=O)c2ccc3ccccc3c2)=C([O-])c2ccccc2S1(=O)=O.[K+] [Compound 1K, potassium 3-(2-naphthoyl)-2-methyl-2H-benzo[e][1,2]thiazin-4-olate 1,1-dioxide]
- increase of plasma exposure versus Compound 1 [1]: ~8 fold
- inhibition of the ex vivo activity of hepatic 11β-HSD type 1 [2]: 68%
- inhibition of plasma prednisolone/prednisone ratio of AUC (30 minutes to 4 hours) ([3]; 20 mg/kg, prednisone 10 mg/kg 2 h later): 81%
- inhibition of conversion of prednisone to prednisolone (prednisolone/prednisone AUC ratio) ([3]; 40 mg/kg): 79%
- inhibition of conversion of prednisone to prednisolone (prednisolone/prednisone AUC ratio) ([3]; 80 mg/kg): 89%
- "maximum" inhibition of plasma prednisolone/prednisone ratio of AUC (30 minutes to 4 hours) ([3]; all the doses tested (20, 40 and 80 mg/kg), 5 animals per group): at least 80%
- clinical or behavioral sign [4]: No particular clinical or behavioral sign
- concentration at 4 h ([5]; liver, read-out: mean hepatic levels (in relative value)): 13600 ± 3700 ng/g
- concentration at 4 h ([5]; inguinal adipose tissue, read-out: tissue levels (in relative value), inguinal adipose tissue): 6100 ± 1500 ng/g
- concentration at 4 h ([5]; mesenteric adipose tissue, read-out: tissue levels (in relative value), mesenteric adipose tissue): 6600 ± 400 ng/g
- concentration at 4 h ([5]; plasma, ± SEM, n=3, read-out: mean plasma levels): 17000 ± 3580 ng/mL
- concentration at 4 h ([5]; subcutaneous adipose tissue, read-out: tissue levels (in relative value), subcutaneous adipose tissue): 1300 ± 100 ng/g
- inhibition of ex vivo activity of 11β-HSD type 1 of peripheral and visceral adipose tissue [6]: complete inhibition
- % inhibition at 1 h ([7]; mouse plasma (2% final volume), 1 h after 0.63 mg/kg oral): 47%
- % inhibition at 1 h ([7]; mouse plasma, 1 h after 2.5 mg/kg oral): 78%
- % inhibition at 1 h ([7]; mouse plasma, 1 h after 10 mg/kg oral): 91%
- % inhibition at 4 h ([7]; mouse plasma, 4 h after 0.63 mg/kg oral): 36%
- % inhibition at 4 h ([7]; mouse plasma, 4 h after 2.5 mg/kg oral): 67%
- % inhibition at 4 h ([7]; mouse plasma, 4 h after 10 mg/kg oral): 86%
- inhibition at 2.5 mg/kg [7, 10]: 75 ± 4%
- inhibition at 2.5 mg/kg [7, 11]: 63 ± 6%
- inhibition at 10 mg/kg [7, 10]: 89 ± 1%
- inhibition at 10 mg/kg [7, 11]: 85 ± 2%
- % inhibition after 4 h ([8]; 4 h after 0.63 mg/kg oral): 21%
- % inhibition after 4 h ([8]; 4 h after 2.5 mg/kg oral): 41%
- % inhibition after 4 h ([8]; 4 h after 10 mg/kg oral): 70%
- Plasma 1 h ([9]; 10 mg/kg oral, 1 h): 13900 ± 2117 ng/mL
- concentration at 1 h ([9]; male, C57BL/6N, mouse, plasma, po, 2.5 mg/kg, 2.5 mg/kg oral, 1 h): 4240 ± 1260 ng/mL
- concentration at 4 h ([9]; male, C57BL/6N, mouse, plasma, po, 2.5 mg/kg, 2.5 mg/kg oral): 3470 ± 2430 ng/mL
- concentration at 4 h ([9]; male, C57BL/6N, mouse, plasma, po, 10 mg/kg, 10 mg/kg oral): 6810 ± 674 ng/mL
